The source of these data is US11214803B2, “Modulators of YAP1 expression” (Ionis Pharmaceuticals, Inc., priority 2019, dated 2022).

Strand notation (5' to 3'): a small letter for the sugar, then the base; units joined by * are phosphorothioate-linked, units joined directly phosphodiester-linked; [ ] holds rarer units or linkages, { } end groups; capitals alone tell only the bases. k = constrained ethyl (cEt); [5mC] = 5-methylcytosine; d = 2'-deoxy (DNA)

Data set [1] has as its system Yap1 mRNA. In words: Antisense inhibition of human Yap1 in A-431 cells by cEt gapmers, single dose (Example 3, RTS36584). It counts as cell-based. The procedure, abridged: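 Free uptake, 2,000 nM, ~48 h, A-431 cells. Gapmers: 16-mer 3-10-3 cEt wings, PS backbone, 5-MeC. Readout qRT-PCR, RiboGreen-normalized, % UTC.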
Data set [2] concerns Yap1 mRNA. In words: Dose-dependent inhibition of human Yap1 in A-431 cells (Example 8, 10,000 cells per well, RTS4814). It counts as cell-based. Conditions: for Yap1 mRNA, % UTC: A-431 cells, 10,000 cells per well; for IC50 / % UTC (Yap1 mRNA): A-431 cells. The procedure, abridged: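 A-431 cells (10,000/well) dosed with modified oligonucleotides by free uptake; Yap1 mRNA measured ~48 h later with primer-probe set RTS4814, normalized to total RNA (RIBOGREEN). Values are % of untreated control; IC50 from linear regression on log/linear plot.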

Setting [3] is: Table 27, Yap1 mRNA by 3-10-3 cEt gapmers targeting SEQ ID NO.: 1, and 2, percent of untreated control.
The mark [4] stands for this setting: 31.3 nM, free uptake, approximately 48 hours, RTS4814.
Setting [5] is: 125.0 nM, free uptake, approximately 48 hours, RTS4814.
Where [6] appears, read: 500.0 nM, free uptake, approximately 48 hours, RTS4814.
[7] abbreviates: 2000.00 nM, free uptake, approximately 48 hours, RTS4814.
The mark [8] stands for this setting: free uptake, approximately 48 hours, RTS4814, linear regression on log/linear plot.
[9] abbreviates: Table 26, Yap1 mRNA by 3-10-3 cEt gapmers targeting SEQ ID NO.: 1, and 2, percent of untreated control.
Where [10] appears, read: Table 34, Yap1 mRNA as percent of untreated control, 3-10-3 cEt gapmers targeting SEQ ID NO: 1 and 2, single dose.
[11] abbreviates: Table 29, Yap1 mRNA as percent of untreated control, 3-10-3 cEt gapmers targeting SEQ ID NO.: 1, and 2.
Where [12] appears, read: Table 28, Yap1 mRNA as percent of untreated control, 3-10-3 cEt gapmers targeting SEQ ID NO.: 1, and 2.

As for “1074413 (kA*k[5mC]*kT*dG*dT*dG*dA*dA*dA*dG*dA*dG*dG*kT*k[5mC]*kA; antisense) [compound 1074413]”, the “YAP1 (% UTC)” value in data set [1] (setting [3]) is on record as 4 % UTC. For the same substance, the “Yap1 mRNA, % UTC” value in data set [2] (setting [4]) came out at 50 % UTC; in data set [2] (setting [5]), 19 % UTC; in data set [2] (setting [6]), 6 % UTC; in data set [2] (setting [7]) it was 3 % UTC. In addition, the IC50 in data set [2] (setting [8]) is below 20 nM.

Consider “1075916 (antisense k[5mC]*kA*kA*dT*dT*dT*dA*dG*dG*dA*dT*dG*d[5mC]*k[5mC]*kT*kT) [compound 1075916]”, for which the “YAP1 (% UTC)” value in data set [1] (setting [9]) amounted to 6 % UTC. For the same substance, the “Yap1 mRNA, % UTC” value in data set [2] (setting [4]) was determined as 73 % UTC; in data set [2] (setting [5]), 34 % UTC; in data set [2] (setting [6]), 14 % UTC; in data set [2] (setting [7]), 8 % UTC. For the same substance, the 50% inhibitory concentration (IC50) in data set [2] (setting [8]) came to 100 nM.

On to “1076556 (kG*kT*kA*dT*dA*dG*dG*d[5mC]*dA*dG*dA*dA*dG*k[5mC]*kA*kA; antisense) [compound 1076556]”, for which the “YAP1 (% UTC)” value in data set [1] (setting [9]) was found to be 9 % UTC. Also, the “Yap1 mRNA, % UTC” value in data set [2] (setting [4]) turned out to be 72 % UTC; in data set [2] (setting [5]) it was 46 % UTC; in data set [2] (setting [6]), 19 % UTC; in data set [2] (setting [7]), 11 % UTC. In addition, the IC50 in data set [2] (setting [8]) came out at 100 nM.

For “1075084 (antisense kT*kG*kA*d[5mC]*dA*dA*d[5mC]*dA*dA*d[5mC]*dA*d[5mC]*dT*k[5mC]*k[5mC]*kT) [compound 1075084]”, in data set [1] (setting [9]), the “YAP1 (% UTC)” value is given as 9 % UTC. For the same substance, the “Yap1 mRNA, % UTC” value is on record as 103 % UTC in data set [2] (setting [4]), 72 % UTC in data set [2] (setting [5]), 37 % UTC in data set [2] (setting [6]) and 14 % UTC in data set [2] (setting [7]). This substance returned an IC50 in data set [2] (setting [8]) of 300 nM.

In the case of “1076460 (kT*kA*kA*dT*dA*dT*dA*dG*d[5mC]*d[5mC]*d[5mC]*d[5mC]*dT*kT*k[5mC]*kA; antisense) [compound 1076460]”, the “YAP1 (% UTC)” value in data set [1] (setting [9]) stood at 7 % UTC. In addition, the “Yap1 mRNA, % UTC” value came to 79 % UTC in data set [2] (setting [4]), 53 % UTC in data set [2] (setting [5]), 25 % UTC in data set [2] (setting [6]) and 12 % UTC in data set [2] (setting [7]). In addition, in data set [2] (setting [8]), it took 200 nM to reach half-maximal inhibition (IC50).

“1074484 (kT*k[5mC]*kA*d[5mC]*dT*dA*dA*dT*dA*dT*dG*dG*dT*k[5mC]*kA*kT; antisense) [compound 1074484]”: the “YAP1 (% UTC)” value in data set [1] (setting [10]) was found to be 3 % UTC. Besides, the “Yap1 mRNA, % UTC” value is 43 % UTC in data set [2] (setting [4]), 12 % UTC in data set [2] (setting [5]), 5 % UTC in data set [2] (setting [6]) and 3 % UTC in data set [2] (setting [7]). The IC50 in data set [2] (setting [8]) was below 20 nM.

Consider “1074479 (k[5mC]*kA*kT*dT*dT*dG*d[5mC]*d[5mC]*dT*dA*dG*dG*dT*kT*k[5mC]*k[5mC]; antisense) [compound 1074479]”, for which the “YAP1 (% UTC)” value in data set [1] (setting [11]) came to 2 % UTC. The “Yap1 mRNA, % UTC” value in data set [2] (setting [4]) worked out at 23 % UTC; in data set [2] (setting [5]), 8 % UTC; in data set [2] (setting [6]) it was 4 % UTC; in data set [2] (setting [7]), 4 % UTC. Besides, in data set [2] (setting [8]), the IC50 was below 20 nM.

Turning to “1074221 (antisense kG*kA*kA*dT*dG*dA*dG*d[5mC]*dT*d[5mC]*dG*dA*dA*k[5mC]*kA*kT) [compound 1074221]”, the “YAP1 (% UTC)” value in data set [1] (setting [3]) came to 6 % UTC. Also, the “Yap1 mRNA, % UTC” value in data set [2] (setting [4]) came to 75 % UTC; in data set [2] (setting [5]) it was 38 % UTC; in data set [2] (setting [6]) it was 14 % UTC; in data set [2] (setting [7]) it was 7 % UTC. The same substance yielded an IC50 in data set [2] (setting [8]) of 100 nM.

In the case of “1076527 (kG*k[5mC]*kA*d[5mC]*dA*dA*d[5mC]*d[5mC]*dT*dT*dA*d[5mC]*dA*kT*kT*kT; antisense) [compound 1076527]”, the “YAP1 (% UTC)” value in data set [1] (setting [11]) was 6 % UTC. Also, the “Yap1 mRNA, % UTC” value in data set [2] (setting [4]) came to 81 % UTC; in data set [2] (setting [5]), 41 % UTC; in data set [2] (setting [6]), 16 % UTC; in data set [2] (setting [7]), 8 % UTC. In data set [2] (setting [8]), this substance yielded an IC50 of 100 nM.

“1074606 (DNA kG*kG*kT*dA*dT*dA*dA*dT*d[5mC]*dA*dT*dG*dA*kT*kT*kA) [compound 1074606]”: the “YAP1 (% UTC)” value in data set [1] (setting [12]) worked out at 4 % UTC. In addition, the “Yap1 mRNA, % UTC” value in data set [2] (setting [4]) is 31 % UTC; in data set [2] (setting [5]), 10 % UTC; in data set [2] (setting [6]) it was 6 % UTC; in data set [2] (setting [7]), 4 % UTC. Moreover, the half-inhibitory concentration (IC50) in data set [2] (setting [8]) is below 20 nM.

For the substance “1074580 (DNA kA*k[5mC]*k[5mC]*dA*d[5mC]*dT*dA*dT*dA*dA*dA*dG*d[5mC]*kT*kT*kA; further chemistry not given here) [compound 1074580]”, in data set [1] (setting [10]), the “YAP1 (% UTC)” value was 5 % UTC. Also, the “% UTC (Yap1 mRNA)” value was 55 % UTC in data set [2] (31.3 nM), 18 % UTC in data set [2] (125.0 nM), 8 % UTC in data set [2] (500.0 nM) and 5 % UTC in data set [2] (2000.00 nM). The 50% inhibitory concentration (IC50) in data set [2] (Yap1 mRNA) is below 20 nM.

Take “1075797 (kG*kA*kT*dA*dA*dT*d[5mC]*dA*dT*dG*dA*dT*dA*k[5mC]*kT*k[5mC]; antisense) [compound 1075797]”: in data set [1] (Table 35, Yap1 mRNA as percent of untreated control, 3-10-3 cEt gapmers targeting SEQ ID NO: 1 and 2, single dose), the “YAP1 (% UTC)” value is given as 3 % UTC. For the same substance, the “% UTC (Yap1 mRNA)” value in data set [2] (31.3 nM) stood at 43 % UTC; in data set [2] (125.0 nM), 11 % UTC; in data set [2] (500.0 nM), 4 % UTC; in data set [2] (2000.00 nM) it was 3 % UTC. The IC50 in data set [2] (Yap1 mRNA) was below 20 nM.

As to “1076461 (kG*kA*kT*dT*dA*dA*dT*dA*dT*dA*dG*d[5mC]*d[5mC]*k[5mC]*k[5mC]*kT; antisense) [compound 1076461]”, the “YAP1 (% UTC)” value in data set [1] (setting [3]) turned out to be 3 % UTC. In addition, the “Yap1 mRNA, % UTC” value in data set [2] (setting [4]) turned out to be 65 % UTC; in data set [2] (setting [5]) it was 24 % UTC; in data set [2] (setting [6]), 7 % UTC; in data set [2] (setting [7]) it was 3 % UTC. This substance gave an IC50 in data set [2] (setting [8]) of 40 nM.

For “1076524 (kA*kA*kT*dT*dT*dA*dT*dA*dT*d[5mC]*dA*dG*dG*kT*k[5mC]*kA; antisense) [compound 1076524]”, the “YAP1 (% UTC)” value in data set [1] (setting [9]) was 6 % UTC. Besides, the “Yap1 mRNA, % UTC” value was 71 % UTC in data set [2] (setting [4]), 30 % UTC in data set [2] (setting [5]), 12 % UTC in data set [2] (setting [6]) and 7 % UTC in data set [2] (setting [7]). The IC50 in data set [2] (setting [8]) turned out to be 100 nM.

With “1075118 (k[5mC]*kT*kA*dT*dT*dT*dA*d[5mC]*dT*d[5mC]*dT*dG*dT*k[5mC]*kA*k[5mC]; antisense) [compound 1075118]”, the “YAP1 (% UTC)” value in data set [1] (setting [12]) was determined as 4 % UTC. Also, the “Yap1 mRNA, % UTC” value in data set [2] (setting [4]) is 85 % UTC; in data set [2] (setting [5]), 36 % UTC; in data set [2] (setting [6]), 8 % UTC; in data set [2] (setting [7]), 4 % UTC. Moreover, 100 nM corresponded to half-maximal inhibition in data set [2] (setting [8]) (IC50).

“1074676 (antisense k[5mC]*kA*kA*dA*dT*dT*dA*dT*dA*dG*dG*d[5mC]*dA*k[5mC]*kT*k[5mC]) [compound 1074676]”: the “YAP1 (% UTC)” value in data set [1] (setting [10]) is recorded as 4 % UTC. In addition, the “% UTC (Yap1 mRNA)” value in data set [2] (31.3 nM) came to 54 % UTC; in data set [2] (125.0 nM), 16 % UTC; in data set [2] (500.0 nM), 6 % UTC; in data set [2] (2000.00 nM), 5 % UTC. Also, the IC50 in data set [2] (Yap1 mRNA) was below 20 nM.

“1075053 (antisense kA*kA*kT*dA*dT*dA*dT*dA*d[5mC]*dT*dT*dG*dA*kT*k[5mC]*k[5mC]) [compound 1075053]”: in data set [1] (setting [3]), the “YAP1 (% UTC)” value is 4 % UTC. Besides, the “Yap1 mRNA, % UTC” value in data set [2] (setting [4]) is recorded as 61 % UTC; in data set [2] (setting [5]), 24 % UTC; in data set [2] (setting [6]) it was 8 % UTC; in data set [2] (setting [7]), 5 % UTC. In data set [2] (setting [8]), this substance showed an IC50 of 40 nM.

What is called IC50 is the point on the concentration scale where inhibition reaches its midpoint.
